Patent publication US20240165092A1, “USE OF AN OREXIN 2 RECEPTOR AGONIST FOR POST OPERATION RECOVERY” (Takeda Pharmaceutical Limited Company, priority 2021, published 2024)

Assays:
Type in all cases: in vivo, rat
Male Sprague-Dawley rats [1] = assay: Fentanyl (0.1 mg/kg)-induced sedation assessed by righting reflex; settings: for Duration of sedation (min) (Mean): fentanyl 0.1 mg/kg SC, vehicle 88.8
Description: Male Sprague-Dawley rats, 8 weeks-age, were purchased from Charles river Japan. In this study, LORR was used as an indicator of sedation. […] As vehicle-treated control, 10.5% (w/v) Captisol®/1.5 mM Na2HIPO4 in distilled water was administered. The time to recovery from LORR was recorded as duration of sedation.

Male Sprague-Dawley rats [2] = assay: Fentanyl (0.1 mg/kg)-induced respiratory depression assessed by whole body plethysmography (WBP)
Male Sprague-Dawley rats [3] = assay: Fentanyl-induced analgesic effects in pain model of postoperative skin incision
Male Sprague-Dawley rats [4] = assay: Fentanyl-induced analgesic effects in formalin test; settings: for Phase I (No. of flinching) / Phase II (No. of flinching): formalin test; for Phase I (No. of flinching): 1 to 11 min; for Phase II (No. of flinching): 16 to 61 min
Male Sprague-Dawley rats [5] = assay: Time to recovery from propofol-induced anesthesia assessed by righting reflex; settings: for Duration of anesthesia (min) (Mean): propofol anesthesia 30 min, vehicle 12.8
Description: Male Sprague-Dawley rats, 8 weeks-age, were purchased from Charles river Japan. To induce and maintain propofol anesthesia, a bolus dose of propofol (10 mg/kg) was administered intravenously to rats. After confirming LORR, rats were gently placed in the supine position on a heating pad to maintain body temperature at 37.0-37.5° C. Subsequently, continuous administration of propofol at 60 mg/kg/hr was performed for 30 min. Fifteen minutes after LORR, Compound (I) was administered SC to rats in a volume of 5 mL/kg of BW. As vehicle-treated control, 10.5% (w/v) Captisol®/1.5 mM Na2HPO4 in distilled water was administered to rats. Thirty minutes after confirming LORR, propofol infusion was terminated and time to recovery from LORR was recorded as duration of anesthesia.

Male Sprague-Dawley rats [6] = assay: Time to recovery from isoflurane-induced anesthesia assessed by righting reflex; settings: for Duration of anesthesia (min) (Mean): isoflurane anesthesia 30 min, vehicle 6.15
Description: Male Sprague-Dawley rats, 8 weeks-age, were purchased from Charles river Japan. To induce and maintain isoflurane anesthesia, rats were placed in a pre-filled anesthesia induction chamber isoflurane 4%. The induction of anesthesia was defined as the rat's inability to right itself into the prone position (loss of righting reflex: LORR) after it was placed in the supine position in a cage. After confirming LORR, rats were exposed to 3% isoflurane using a facemask and maintained for 30 min. Fifteen minutes after LORR, Compound (I) was administered subcutaneously (SC) to rats in a volume of 5 mL/kg of body weight (BW). As vehicle-treated control, 10.5% (w/v) Captisol® (CyDex Pharmaceuticals, KS, USA)/1.5 mM Na2HIPO4 in distilled water was administered to rats. Thirty minutes after confirming LORR, isoflurane inhalation was terminated and time to recovery from LORR was recorded as duration of anesthesia. Body temperature was maintained at 37.0-37.5° C. using a heating pad during and after anesthesia.

[7] = Compound (I) 10 mg/kg SC 15 min before fentanyl 0.1 mg/kg SC, 0 to 30 min after fentanyl
[8] = Compound (I) 3.0 mg/kg + fentanyl 0.045 mg/kg
[9] = Compound (I) 10 mg/kg + fentanyl 0.045 mg/kg
[10] = Compound (I) 1.0 mg/kg SC 15 min after LORR

COC(=O)N1CCCC(NS(C)(=O)=O)C1COC1CCC(c2ccccc2)CC1 (stereo not drawn) [Compound (I), methyl 3-((methylsulfonyl)amino)-2-(((4-phenylcyclohexyl)oxy)methyl)piperidine-1-carboxylate]
Duration of sedation (min) (Mean) (Male Sprague-Dawley rats [1]; Compound (I) 1.0 mg/kg SC 10 min after fentanyl): 81.3 min | Duration of sedation (min) (Mean) (Male Sprague-Dawley rats [1]; Compound (I) 3.0 mg/kg SC 10 min after fentanyl): 67.0 min | Duration of sedation (min) (Mean) (Male Sprague-Dawley rats [1]; Compound (I) 10 mg/kg SC 10 min after fentanyl): 42.9 min | duration of fentanyl-induced sedation assessed by righting reflex (Male Sprague-Dawley rats [1]; result in words): reduced duration of fentanyl-induced sedation | MV (mL/min) (Mean) (Male Sprague-Dawley rats [2]; [7]): 206 mL/min | RR (breaths/min) (Mean) (Male Sprague-Dawley rats [2]; [7]): 144 breaths/min | TV (mL/stroke) (Mean) (Male Sprague-Dawley rats [2]; [7]): 1.61 mL/stroke | fentanyl-induced respiratory depression (Male Sprague-Dawley rats [2]; result in words): suppressed fentanyl-induced respiratory depression | RR, TV and MV compared to that of vehicle group (Male Sprague-Dawley rats [2]; with fentanyl 0.1 mg/kg, result in words): increased RR, TV and MV | pain threshold 1 hr after the skin incision (Male Sprague-Dawley rats [3]; Compound (I) 3.0 mg/kg SC 15 min before incision + fentanyl 0.03 mg/kg SC): 28.5 g | pain threshold 1 hr after the skin incision (Male Sprague-Dawley rats [3]; Compound (I) 10 mg/kg SC 15 min before incision + fentanyl 0.03 mg/kg SC): 32.2 g | effect on the analgesic effect of fentanyl (Male Sprague-Dawley rats [3]; postoperative skin incision model, fentanyl 0.03 mg/kg, result in words): did not counteract the analgesic effect of fentanyl | effect on the analgesic effect of fentanyl (Male Sprague-Dawley rats [4]; formalin pain model, fentanyl 0.045 mg/kg, result in words): did not counteract the analgesic effect of fentanyl | Phase I (No. of flinching) (Male Sprague-Dawley rats [4]; [8]): 5 | Phase I (No. of flinching) (Male Sprague-Dawley rats [4]; [9]): 4 | Phase II (No. of flinching) (Male Sprague-Dawley rats [4]; [8]): 52 | Phase II (No. of flinching) (Male Sprague-Dawley rats [4]; [9]): 45 | Duration of anesthesia (min) (Mean) (Male Sprague-Dawley rats [5]; [10]): 11.7 min | Duration of anesthesia (min) (Mean) (Male Sprague-Dawley rats [5]; Compound (I) 3.0 mg/kg SC 15 min after LORR): 6.70 min | Duration of anesthesia (min) (Mean) (Male Sprague-Dawley rats [5]; Compound (I) 10 mg/kg SC 15 min after LORR): 6.00 min | time to recovery from propofol-induced anesthesia assessed by righting reflex (Male Sprague-Dawley rats [5]; result in words): reduced time to recovery | Duration of anesthesia (min) (Mean) (Male Sprague-Dawley rats [6]; Compound (I) 0.3 mg/kg SC 15 min after LORR): 3.92 min | Duration of anesthesia (min) (Mean) (Male Sprague-Dawley rats [6]; [10]): 3.06 min | time to recovery from isoflurane-induced anesthesia assessed by righting reflex (Male Sprague-Dawley rats [6]; result in words): reduced time to recovery
